Reference: patent EP0252983B1, “SALTS OF N-(VINYLOXIETHYL)DITHIOCARBAMIC ACID, METHOD OF OBTAINING THEREOF AND […] ON THEM” (priority 1985, dated 1987)
Read-outs that look alike come from different tables or passages of the source.

Legend:
[1] = Solubility in water (descriptive); format: physicochemical
[2] = test system: Aspergillus niger; experiment: Mycelial growth inhibition on agar (contact activity); format: cell-based; details: Aspergillus niger, 120 h; for inhibition of growth at 0.003 %: Wirkstoffkonzentration 0,003 %
[3] = test system: Acremonium charticola; experiment: as above; format: cell-based; details: Acremonium charticola, 120 h; Präparatkonzentration 0,0015 %; Würzeagar; read-out: Myzelhemmung in %
[4] = test system: Chaetomium globosum; experiment: as above; format: cell-based
Protocol: (§1) Die Prüfungen werden nach dem Verfahren zur Ermittlung der Kontaktaktivität durchgeführt. Man verwendet das in Wasser gelöste Kalium-N-(vinyloxyäthyl)dithiocarbamat, führt es in ein Nährmedium ein und vergießt auf Petri-Schalen. Nach 24 Stunden wird mit Pilzmyzelium nach einem Stichverfahren geimpft. Dann temperiert man die Schalen innerhalb von 5 Tagen bei einer zwischen 24 und 26 °C liegenden Temperatur und mißt den Durchmesser von Pilzkolonien, ermittelt den Prozentsatz der Hemmung des Myzelwachstums (S) ausgehend von Angaben am 5. Tag nach der Abbott-Formel [drawing 13] worin dc für den Durchmesser der Pilzkolonien, de für den Durchmesser von Pilzkolonien in der Schale stehen, wo ein die zu prüfenden Stoffe enthaltendes Medium vorhanden ist. Dieses Verfahren zur Ermittlung der mikrobiologischen Aktivität ist in anderen Beispielen verwendet.

[5] = test system: Stereum hirsutum; experiment: as above; format: cell-based; details: Stereum hirsutum, 120 h; Wirkstoffkonzentration 0,003 %; Tabelle 3; read-out: Mycelhemmung, in %
Protocol: as §1

[6] = test system: Paecilomyces varioti; experiment: as above; format: cell-based; details: Paecilomyces, 120 h; Wirkstoffkonzentration 0,003 %; Tabelle 3; read-out: Mycelhemmung, in %
Protocol: as §1

[7] = test system: Penicillium funiculosum; experiment: as above; format: cell-based
Protocol: as §1

[8] = test system: Micrococcus; experiment: Bactericidal activity on agar (concentration of complete growth inhibition); format: cell-based; details: % bezogen auf den Wirkstoff; am 5. Tag; listed as Kaliumsalz
Protocol: (§2) Geprüft wird die bakterizide Aktivität von Kalium-, Natrium-, Zink- und Kupfersalzen der N-(Vinyloxyäthyl)dithiocarbamidsäure gegen Bakterien der Gattungen Bacillus, Micrococcus, Pseudomonas, Escherichia und Xantomonas.
(§3) Man stellt wäßrige Stofflösungen verschiedener Konzentration her, die so berechnet werden, daß die Stoffkonzentration in der Petri-Schale bei der Gabe von 1 ml Lösung in das geschmolzene Nährmedium (45 bis 50 °C) zwischen 0,003 und 25 % (bezogen auf den Wirkstoff) schwankt. Nach 18 bis 24 Stunden bringt man auf die Oberfläche des Nährmediums 0,1 ml wäßrige Suspension eintägiger reiner Kulturen von Bakterien auf und verteilt sie gleichmäßig. In Kontrollschalen verteilt sich 0,1 ml Wasser über die Oberfläche des Nährmediums. Die Inkubation erfolgt bei 37 °C innerhalb von 5 Tagen. Die Wirksamkeit der Stoffe wird nach dem Auftreten des Bakterienwachstums auf der Oberfläche des Nährmediums eingeschätzt. Die Prüfergebnisse sind in der Tabelle 13 dargestellt.

[9] = test system: Pseudomonas; experiment: as above; format: cell-based; details: % bezogen auf den Wirkstoff; am 5. Tag; listed as Kaliumsalz
Protocol: as §2, §3

[10] = test system: Escherichia; experiment: as above; format: cell-based; details: % bezogen auf den Wirkstoff; am 5. Tag; listed as Kaliumsalz
Protocol: as §2, §3

[11] = test system: Bacillus; experiment: as above; format: cell-based; details: % bezogen auf den Wirkstoff; am 5. Tag; listed as Kaliumsalz
Protocol: as §2, §3

[12] = test system: Larven von Fichtenböcken; experiment: Insecticidal activity, topical application to larvae; format: in vivo, Fichtenböcke; details: 10%ige Lösung
Text: Die hohe insektizide Aktivität von Kalium-N-(vinyloxyathyl)dithiocarbamat und Zink-bis-(N-vinyloxyathyl- dithiocarbamat) wurde in Versuchen an Larven von Fichtenböcken nachgewiesen. Geprüft wurden die 10%igen wäßrigen (oder alkoholischen) Lösungen, welche auf die Kopfbrust von Larven aufgebracht wurden. In Versuchen standen je 20 Larven zur Verfügung. Die Versuche wurden dreimal wiederholt. Die Mortalität wurde nach 1, 24 und 48 Stunden ermittelt. Die insektizide Aktivität der erfindungsgemäßen Stoffe ist bedeutend höher als die von Chlorophos.
Die Prüfungen auf insektizide Aktivität werden an Larven von Fichtenböcken durchgeführt. Geprüft werden eine 10%ige wäßrige Lösung von Kalium-N-(vinyloxyäthyl)dithiocarbamat und eine 10%ige alkoholische Lösung von Zink-bis-N-(vinyloxyathyldithiocarbamat). In jedem Versuch stehen je 20 Larven zur Verfügung. Die Mortalität wird nach 1, 24 und 48 Stunden ermittelt. Die zu prüfenden Lösungen werden auf die Kopfbrust von Larven aufgebracht.

[13] = Storage stability (descriptive); format: physicochemical
[14] = test system: Verticillium dahliae; experiment: Mycelial growth inhibition on agar (contact activity); format: cell-based; details: 120 h, Kartoffel-Glukose-Nährmedium, read-out: Myzelhemmung in %
How it was run: (§4)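 Compound dissolved in water and mixed into potato-glucose agar poured into dishes. Mycelium stab-inoculated after 24 h, then incubated 5 days at 24–26 °C. Colony diameters measured on day 5, and % mycelial growth inhibition calculated by Abbott's formula.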

[15] = test system: Venturia inaegualis; experiment: as above; format: cell-based; details: 120 h, Kartoffel-Glukose-Nährmedium, read-out: Myzelhemmung in %
How it was run: as §4

[16] = test system: Fusarium moniliforme; experiment: as above; format: cell-based; details: Fusarium verticillioides, 120 h, Kartoffel-Glukose-Nährmedium, read-out: Myzelhemmung in %
[17] = test system: Botrytis cinerea; experiment: as above; format: cell-based; details: 120 h, Kartoffel-Glukose-Nährmedium, read-out: Myzelhemmung in %
How it was run: as §4

[18] = test system: Fusarium sambucinum; experiment: as above; format: cell-based; details: Fusarium sambucinum, 120 h, Kartoffel-Glukose-Nährmedium, read-out: Myzelhemmung in %
[19] = test system: Wurzelschimmelkomplex von Gewächshausgurken; experiment: Greenhouse trial against cucumber root mould complex (200 m^2); format: in vivo
Text: Kalium-N-(vinyloxyäthyl)dithiocarbamat wurde gegen Wurzelschimmelkomplex von Gewächshausgurken auf einer Fläche von 200 m^2 und 1 ha geprüft. Die auf einer 200 m^2 großen Fläche durchgeführten Prüfungen haben gezeigt, daß Kalium-N-(vinyloxyäthyl)dithiocarbamat die 100%ige Unterdrückung von Erregern der Pythium-Fäule und der begleitenden Gurkenwurzelschimmeln bewirkt. Der Ernteertrag steigt dabei durch Bodenbehandlung um 4,2 kg/m^2 gegenüber Kontrolle (ohne Wirkstoffgabe ist der Ertrag 10 kg/m^2 und um 1,6 kg/m^2 gegenüber Fundazol an.

Compound: C=COCCNC(=S)S [Kalium-N-(vinyloxyäthyl)dithiocarbamat]
- Löslichkeit in Wasser [1]: gut
- inhibition of growth at 0.01 % ([2]; Wirkstoffkonzentration 0,01 %, Kartoffel-Glukose-Nährmedium, read-out: Myzelhemmung in %): 100%
- inhibition of growth at 0.003 % ([2]; Kartoffel-Glukose-Nährmedium, read-out: Myzelhemmung in %): 100%
- inhibition of growth at 0.003 % ([2]; Tabelle 3, read-out: Mycelhemmung, in %): 100%
- inhibition of growth at 0.0015 % [3]: 100%
- inhibition of growth at 0.003 % ([4]; Chaetomium globosum, 120 h, Wirkstoffkonzentration 0,003 %, Tabelle 3, read-out: Mycelhemmung, in %): 100%
- Aktivität übersteigt Polykarbazin (Vergleichsmuster) ([4]; gegen das Myzelium der Pilze Chaetomium globosum): 10%
- inhibition of growth at 0.003 % [5]: 100%
- inhibition of growth at 0.003 % [6]: 100%
- inhibition of growth at 0.003 % ([7]; Talaromyces funiculosus, 120 h, Wirkstoffkonzentration 0,003 %, Tabelle 3, read-out: Mycelhemmung, in %): 100%
- Aktivität übersteigt Salizylanilid (Vergleichsmuster) ([7]; gegen Myzelium von Penicillium funiculosum): 10%
- Konzentrationen, welche das Bakterienwachstum völlig (100 %) hemmen [8]: 0,05%
- Konzentrationen, welche das Bakterienwachstum völlig (100 %) hemmen [9]: 0,05%
- Konzentrationen, welche das Bakterienwachstum völlig (100 %) hemmen [10]: 0,05%
- Konzentrationen, welche das Bakterienwachstum völlig (100 %) hemmen [11]: 0,05%
- Mortalität von Larven der Fichtenböcke ([12]; Wirkungsdauer 1 Stunde): 20%
- Mortalität von Larven der Fichtenböcke ([12]; Wirkungsdauer 24 Stunden): 100%
- Mortalität von Larven der Fichtenböcke ([12]; Wirkungsdauer 48 Stunden): 100%
- Lagerbeständigkeit [13]: lagerbeständig
- inhibition of growth at 0.01 % ([14]; Wirkstoffkonzentration 0,01 %): 100%
- inhibition of growth at 0.003 % ([14]; Wirkstoffkonzentration 0,003 %): 100%
- inhibition of growth at 0.01 % ([15]; Wirkstoffkonzentration 0,01 %): 100%
- inhibition of growth at 0.003 % ([15]; Wirkstoffkonzentration 0,003 %): 100%
- inhibition of growth at 0.01 % ([16]; Wirkstoffkonzentration 0,01 %): 100%
- inhibition of growth at 0.003 % ([16]; Wirkstoffkonzentration 0,003 %): 100%
- inhibition of growth at 0.01 % ([17]; Wirkstoffkonzentration 0,01 %): 100%
- inhibition of growth at 0.003 % ([17]; Wirkstoffkonzentration 0,003 %): 100%
- inhibition of growth at 0.01 % ([18]; Wirkstoffkonzentration 0,01 %): 100%
- inhibition of growth at 0.003 % ([18]; Wirkstoffkonzentration 0,003 %): 100%
- Unterdrückung von Erregern der Pythium-Fäule und der begleitenden Gurkenwurzelschimmeln ([19]; 200 m^2 große Fläche): 100%
- Ernteertrag steigt gegenüber Fundazol ([19]; Bodenbehandlung, 200 m^2): 1,6 kg/m^2
- Ernteertrag steigt gegenüber Kontrolle ([19]; Bodenbehandlung, 200 m^2, Kontrolle 10 kg/m^2): 4,2 kg/m^2
